Paper PMC6995562, “Evaluating Iso-Mukaadial Acetate and Ursolic Acid Acetate as Plasmodium falciparum Hypoxanthine-Guanine-Xanthine Phosphoribosyltransferase Inhibitors” (Biomolecules, 2019)
Like-named read-outs stand apart in the source and are kept apart here.

Target: T1, Plasmodium falciparum hypoxanthine-guanine-xanthine phosphoribosyltransferase (PfHGXPRT) (Plasmodium falciparum, UniProt Q8IJS1)
T1 construct: gene PF3D7_1012400; recombinant, N-terminal His6 tag (pET28-a), expressed in E. coli BL21 (DE3)
T1 sequence (Q8IJS1 entry or part of it): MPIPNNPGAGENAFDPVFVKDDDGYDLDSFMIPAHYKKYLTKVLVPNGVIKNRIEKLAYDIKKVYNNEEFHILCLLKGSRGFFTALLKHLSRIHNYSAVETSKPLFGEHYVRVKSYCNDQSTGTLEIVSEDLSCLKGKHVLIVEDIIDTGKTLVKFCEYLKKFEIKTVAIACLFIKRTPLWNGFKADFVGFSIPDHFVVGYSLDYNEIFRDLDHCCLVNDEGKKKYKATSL
Test: microscale thermophoresis (MST) with labelled His-tagged protein; UV-Vis spectral change
Format: binding

Molecule | Kd | Kd (read-out: Kd)
CC(=O)O[C@H]1CC[C@]2(C)[C@H]3CC=C4[C@@H]5[C@@H](C)[C@H](C)CC[C@]5(C(=O)O)CC[C@@]4(C)[C@]3(C)CC[C@H]2C1(C)C [UAA, ursolic acid acetate] | 2840 nM | –
iso-mukaadial acetate [IMA] | – | 83.3 nM
